IC50 data for 27 compounds are collected here from patent publication US7846959B2, “Raf modulators and methods of use” (Exelixis, Inc., priority 2004, dated 2010).

For orientation: IC50 means the point on the concentration scale where inhibition reaches its midpoint.

SMILES strings stand for the structures. Some results are limits rather than exact numbers.

Experiment [1] has as its target B-Raf (Homo sapiens, UniProt P15056). Put plainly: Luciferase-coupled chemiluminescence kinase assay (ATP consumption), B-Raf. It counts as biochemical. The following applies: read-out: bRaf IC50. Put shortly: (§1)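 Pre-incub. kinase […] + cpd, 30 min RT (20 mM Tris pH 7.5, 10 mM MgCl2, 0.03% TX-100, 1 mM DTT). Start w/ ATP, 3 h ambient. Luciferase-luciferin mix added and luminescence read. Total ATP use 25-60%. IC50 derived.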

Experiment [2] has as its target c-Raf (Homo sapiens, UniProt P04049). Put plainly: Luciferase-coupled chemiluminescence kinase assay (ATP consumption), c-Raf. As to conditions: read-out: cRaf-1 IC50. The experiment is classed as biochemical. Put shortly: as §1

Sequence of B-Raf (P15056 whole entry): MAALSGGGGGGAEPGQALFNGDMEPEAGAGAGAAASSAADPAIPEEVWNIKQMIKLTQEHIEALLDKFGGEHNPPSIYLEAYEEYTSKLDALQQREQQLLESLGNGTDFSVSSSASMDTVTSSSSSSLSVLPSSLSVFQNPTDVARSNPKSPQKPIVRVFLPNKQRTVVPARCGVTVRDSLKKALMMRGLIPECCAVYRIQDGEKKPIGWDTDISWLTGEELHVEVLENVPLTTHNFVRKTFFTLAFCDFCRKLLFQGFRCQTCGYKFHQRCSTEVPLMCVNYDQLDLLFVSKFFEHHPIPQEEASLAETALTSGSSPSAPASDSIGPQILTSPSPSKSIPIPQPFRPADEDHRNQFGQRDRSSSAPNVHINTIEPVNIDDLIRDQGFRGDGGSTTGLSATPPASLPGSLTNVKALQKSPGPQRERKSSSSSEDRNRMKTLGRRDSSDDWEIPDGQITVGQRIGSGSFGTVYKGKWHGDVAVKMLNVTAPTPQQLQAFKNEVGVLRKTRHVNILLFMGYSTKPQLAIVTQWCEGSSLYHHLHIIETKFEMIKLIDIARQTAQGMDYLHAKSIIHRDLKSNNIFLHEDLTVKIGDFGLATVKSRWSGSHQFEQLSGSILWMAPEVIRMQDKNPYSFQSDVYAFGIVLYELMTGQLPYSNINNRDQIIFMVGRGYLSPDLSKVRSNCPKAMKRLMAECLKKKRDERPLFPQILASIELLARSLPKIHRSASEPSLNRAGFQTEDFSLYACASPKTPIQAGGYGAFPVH
Sequence of c-Raf (P04049 whole entry): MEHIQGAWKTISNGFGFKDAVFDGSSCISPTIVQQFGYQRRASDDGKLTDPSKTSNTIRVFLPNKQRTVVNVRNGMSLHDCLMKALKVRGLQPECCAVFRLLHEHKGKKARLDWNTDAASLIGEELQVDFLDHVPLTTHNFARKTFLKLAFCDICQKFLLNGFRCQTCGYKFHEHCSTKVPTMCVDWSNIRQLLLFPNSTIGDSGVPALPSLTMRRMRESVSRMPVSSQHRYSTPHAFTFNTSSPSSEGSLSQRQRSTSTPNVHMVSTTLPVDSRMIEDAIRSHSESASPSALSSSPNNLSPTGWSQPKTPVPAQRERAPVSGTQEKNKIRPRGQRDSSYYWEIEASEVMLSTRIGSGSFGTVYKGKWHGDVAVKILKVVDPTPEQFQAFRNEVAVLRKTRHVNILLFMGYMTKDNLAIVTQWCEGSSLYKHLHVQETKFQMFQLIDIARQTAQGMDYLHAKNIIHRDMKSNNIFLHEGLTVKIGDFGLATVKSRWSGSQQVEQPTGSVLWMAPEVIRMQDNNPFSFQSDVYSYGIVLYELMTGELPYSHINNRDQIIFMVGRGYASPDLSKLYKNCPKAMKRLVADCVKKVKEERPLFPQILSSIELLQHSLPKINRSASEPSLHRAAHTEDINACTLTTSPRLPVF

`COC(=O)Nc1nc2cc(C3(O)c4ccccc4C(=O)N3c3cccc(NC(C)=O)c3)ccc2[nH]1` (stereo not drawn) [Entry 231, methyl (5-{2-[3-(acetylamino)phenyl]-1-hydroxy-3-oxo-2,3-dihydro-1H-isoindol-1-yl}-1H-benzimidazol-2-yl)carbamate]: the IC50 in experiment [1] and in experiment [2] was less than 100 nM in each case.
On to `COC(=O)Nc1nc2cc(C3(O)c4ccccc4C(=O)N3c3cccc(Cc4ccccc4)c3)ccc2[nH]1` (stereo not drawn) [Entry 232, methyl (5-{1-hydroxy-3-oxo-2-[3-(phenylmethyl)phenyl]-2,3-dihydro-1H-isoindol-1-yl}-1H-benzimidazol-2-yl)carbamate], for which the concentration for half-maximal inhibition (IC50) in experiment [1] and in experiment [2] was less than 100 nM each time.
As to `COC(=O)Nc1nc2cc(C3(O)c4ccccc4C(=O)N3C(C)c3cc(Cl)cs3)ccc2[nH]1` (stereo not drawn) [Entry 233, methyl (5-{2-[1-(4-chloro-2-thienyl)ethyl]-1-hydroxy-3-oxo-2,3-dihydro-1H-isoindol-1-yl}-1H-benzimidazol-2-yl)carbamate], the IC50 in experiment [1] and in experiment [2] was less than 100 nM in each case.
In the case of `COC(=O)Nc1nc2cc(C3(O)c4ccccc4C(=O)N3c3cccc(C(=O)c4ccccc4)c3)ccc2[nH]1` (stereo not drawn) [Entry 234, methyl (5-{1-hydroxy-3-oxo-2-[3-(phenylcarbonyl)phenyl]-2,3-dihydro-1H-isoindol-1-yl}-1H-benzimidazol-2-yl)carbamate], the IC50 was in the range of 1000 to 10000 nM in experiment [1] and 100 to 1000 nM in experiment [2].
In the case of `COC(=O)Nc1nc2cc(C3(O)c4ccccc4C(=O)N3c3cccc(CN(C)C)c3)ccc2[nH]1` (stereo not drawn) [Entry 235, methyl [5-(2-{3-[(dimethylamino)methyl]phenyl}-1-hydroxy-3-oxo-2,3-dihydro-1H-isoindol-1-yl)-1H-benzimidazol-2-yl]carbamate], the IC50 in experiment [1] and in experiment [2] was 100 to 1000 nM in each case.
For `COC(=O)Nc1nc2cc(C3(O)c4ccccc4C(=O)N3c3cccc(S(N)(=O)=O)c3)ccc2[nH]1` (stereo not drawn) [Entry 236, methyl (5-{2-[3-(aminosulfonyl)phenyl]-1-hydroxy-3-oxo-2,3-dihydro-1H-isoindol-1-yl}-1H-benzimidazol-2-yl)carbamate], the IC50 in experiment [1] and in experiment [2] was 100 to 1000 nM each time.
On to `COC(=O)Nc1nc2cc(C3(O)c4ccccc4C(=O)N3c3cccc(C(C)=O)c3)ccc2[nH]1` (stereo not drawn) [Entry 237, methyl {5-[2-(3-acetylphenyl)-1-hydroxy-3-oxo-2,3-dihydro-1H-isoindol-1-yl]-1H-benzimidazol-2-yl}carbamate], for which the IC50 in experiment [1] and in experiment [2] was less than 100 nM each time.
For the compound `CCc1cc(N2C(=O)c3ccccc3C2(O)c2ccc3[nH]c(NC(=O)OC)nc3c2)ccc1F` (stereo not drawn) [Entry 238, methyl {5-[2-(3-ethyl-4-fluorophenyl)-1-hydroxy-3-oxo-2,3-dihydro-1H-isoindol-1-yl]-1H-benzimidazol-2-yl}carbamate], the IC50 in experiment [1] and in experiment [2] was less than 100 nM throughout.
Regarding `COC(=O)Nc1nc2cc(C3(O)c4ccccc4C(=O)N3c3cc(F)cc(Cl)c3)ccc2[nH]1` (stereo not drawn) [Entry 239, methyl {5-[2-(3-chloro-5-fluorophenyl)-1-hydroxy-3-oxo-2,3-dihydro-1H-isoindol-1-yl]-1H-benzimidazol-2-yl}carbamate], the IC50 in experiment [1] and in experiment [2] was less than 100 nM in each case.
Consider `CC(C)C(=O)Nc1nc2ccc(C3(O)c4ccccc4C(=O)N3Cc3ccccc3)cc2[nH]1` (stereo not drawn) [Entry 240, N-{6-[1-hydroxy-3-oxo-2-(phenylmethyl)-2,3-dihydro-1H-isoindol-1-yl]-1H-benzimidazol-2-yl}-2-methylpropanamide], for which the IC50 in experiment [1] and in experiment [2] was 100 to 1000 nM in each case.
For the compound `COC(=O)Nc1nc2cc(C3(O)c4ccccc4C(=O)N3C(C)c3sccc3Cl)ccc2[nH]1` (stereo not drawn) [Entry 241, methyl (5-{2-[1-(3-chloro-2-thienyl)ethyl]-1-hydroxy-3-oxo-2,3-dihydro-1H-isoindol-1-yl}-1H-benzimidazol-2-yl)carbamate], the IC50 in experiment [1] and in experiment [2] was 1000 to 10000 nM in each case.
Take `COC(=O)Nc1nc2cc(C3(O)c4ccccc4C(=O)N3c3cccnc3)ccc2[nH]1` (stereo not drawn) [Entry 242, methyl [5-(1-hydroxy-3-oxo-2-pyridin-3-yl-2,3-dihydro-1H-isoindol-1-yl)-1H-benzimidazol-2-yl]carbamate]: the values for the 50% inhibitory concentration (IC50) in experiment [1] and in experiment [2] were 100 to 1000 nM and less than 100 nM, respectively.
With `COC(=O)Nc1nc2cc(C3(O)c4ccccc4C(=O)N3c3cccc(Nc4ccccc4)c3)ccc2[nH]1` (stereo not drawn) [Entry 243, methyl (5-{1-hydroxy-3-oxo-2-[3-(phenylamino)phenyl]-2,3-dihydro-1H-isoindol-1-yl}-1H-benzimidazol-2-yl)carbamate], the IC50 in experiment [1] and in experiment [2] was 100 to 1000 nM each time.
`COC(=O)Nc1nc2cc(C3(O)c4ccccc4C(=O)N3c3cc(Br)c(F)cc3F)ccc2[nH]1` (stereo not drawn) [Entry 244, methyl {5-[2-(5-bromo-2,4-difluorophenyl)-1-hydroxy-3-oxo-2,3-dihydro-1H-isoindol-1-yl]-1H-benzimidazol-2-yl}carbamate]: the IC50 in experiment [1] and in experiment [2] was less than 100 nM throughout.
`COC(=O)Nc1nc2cc(C3(O)c4ccccc4C(=O)N3c3cc(Cl)c(F)cc3F)ccc2[nH]1` (stereo not drawn) [Entry 245, methyl {5-[2-(5-chloro-2,4-difluorophenyl)-1-hydroxy-3-oxo-2,3-dihydro-1H-isoindol-1-yl]-1H-benzimidazol-2-yl}carbamate]: the IC50 in experiment [1] and in experiment [2] was less than 100 nM in each case.
Take `COC(=O)Nc1nc2cc(C3(O)c4ccccc4C(=O)N3c3cc(Cl)c(F)c(Cl)c3)ccc2[nH]1` (stereo not drawn) [Entry 246, methyl {5-[2-(3,5-dichloro-4-fluorophenyl)-1-hydroxy-3-oxo-2,3-dihydro-1H-isoindol-1-yl]-1H-benzimidazol-2-yl}carbamate]: the IC50 in experiment [1] lay in the range of 1000 to 10000 nM; in experiment [2] it was 100 to 1000 nM.
For `COCC(C)(C)COC(=O)Nc1nc2cc(C3(O)c4ccccc4C(=O)N3Cc3ccccc3)ccc2[nH]1` (stereo not drawn) [Entry 247, 2,2-dimethyl-3-(methyloxy)propyl {5-[1-hydroxy-3-oxo-2-(phenylmethyl)-2,3-dihydro-1H-isoindol-1-yl]-1H-benzimidazol-2-yl}carbamate], the IC50 in experiment [1] and in experiment [2] was 100 to 1000 nM throughout.
Regarding `CC(C)(CO)COC(=O)Nc1nc2cc(C3(O)c4ccccc4C(=O)N3Cc3ccccc3)ccc2[nH]1` (stereo not drawn) [Entry 248, 3-hydroxy-2,2-dimethylpropyl {5-[1-hydroxy-3-oxo-2-(phenylmethyl)-2,3-dihydro-1H-isoindol-1-yl]-1H-benzimidazol-2-yl}carbamate], the IC50 in experiment [1] and in experiment [2] was 100 to 1000 nM each time.
Take `COC(=O)Nc1nc2cc(C3(O)c4ccccc4C(=O)N3C(C)c3ccc(Br)s3)ccc2[nH]1` (stereo not drawn) [Entry 249, methyl (5-{2-[1-(5-bromo-2-thienyl)ethyl]-1-hydroxy-3-oxo-2,3-dihydro-1H-isoindol-1-yl}-1H-benzimidazol-2-yl)carbamate]: the IC50 in experiment [1] and in experiment [2] was less than 100 nM each time.
Consider `COC(=O)Nc1nc2cc(C3(O)c4ccccc4C(=O)N3c3cc(Cl)c(Cl)cc3F)ccc2[nH]1` (stereo not drawn) [Entry 250, methyl {5-[2-(4,5-dichloro-2-fluorophenyl)-1-hydroxy-3-oxo-2,3-dihydro-1H-isoindol-1-yl]-1H-benzimidazol-2-yl}carbamate], for which the IC50 in experiment [1] and in experiment [2] was less than 100 nM each time.
For `COC(=O)Nc1nc2cc(C3(O)c4ccccc4C(=O)N3c3cccc(Br)c3F)ccc2[nH]1` (stereo not drawn) [Entry 251, methyl {5-[2-(3-bromo-2-fluorophenyl)-1-hydroxy-3-oxo-2,3-dihydro-1H-isoindol-1-yl]-1H-benzimidazol-2-yl}carbamate], the IC50 in experiment [1] and in experiment [2] was less than 100 nM in each case.
In the case of `COC(=O)Nc1nc2cc(C3(O)c4ccccc4C(=O)N3c3ccc(F)c(Cl)c3F)ccc2[nH]1` (stereo not drawn) [Entry 252, methyl {5-[2-(3-chloro-2,4-difluorophenyl)-1-hydroxy-3-oxo-2,3-dihydro-1H-isoindol-1-yl]-1H-benzimidazol-2-yl}carbamate], the IC50 in experiment [1] and in experiment [2] was less than 100 nM each time.
In the case of `C#CCCC(=O)Nc1nc2ccc(C3(O)c4ccccc4C(=O)N3Cc3ccccc3)cc2[nH]1` (stereo not drawn) [Entry 253, N-{6-[1-hydroxy-3-oxo-2-(phenylmethyl)-2,3-dihydro-1H-isoindol-1-yl]-1H-benzimidazol-2-yl}pent-4-ynamide], the IC50 in experiment [1] and in experiment [2] was less than 100 nM throughout.
In the case of `COC(=O)Nc1nc2ccc(C3(C)c4ccccc4C(=O)N3c3cccc(C(F)(F)F)c3)cc2[nH]1` (stereo not drawn) [Entry 254, methyl (6-{1-methyl-3-oxo-2-[3-(trifluoromethyl)phenyl]-2,3-dihydro-1H-isoindol-1-yl}-1H-benzimidazol-2-yl)carbamate], the IC50 in experiment [1] and in experiment [2] was less than 100 nM throughout.
For `COC(=O)Nc1nc2cc(C3(O)c4ccccc4C(=O)N3c3cccc(OC(F)(F)C(F)F)c3)ccc2[nH]1` (stereo not drawn) [Entry 255, methyl [5-(1-hydroxy-3-oxo-2-{3-[(1,1,2,2-tetrafluoroethyl)oxy]phenyl}-2,3-dihydro-1H-isoindol-1-yl)-1H-benzimidazol-2-yl]carbamate], the IC50 in experiment [1] and in experiment [2] was 1000 to 10000 nM each time.
For `COC(=O)Nc1nc2cc(C3(O)c4ccccc4C(=O)N3c3cccc(C4CCNCC4)c3)ccc2[nH]1` (stereo not drawn) [Entry 256, methyl {5-[1-hydroxy-3-oxo-2-(3-piperidin-4-ylphenyl)-2,3-dihydro-1H-isoindol-1-yl]-1H-benzimidazol-2-yl}carbamate], the IC50 in experiment [1] and in experiment [2] was 100 to 1000 nM each time.
As for `C=Cc1cccc(N2C(=O)c3ccccc3C2(O)c2ccc3[nH]c(NC(=O)OC)nc3c2)c1` (stereo not drawn) [Entry 257, methyl {5-[2-(3-ethenylphenyl)-1-hydroxy-3-oxo-2,3-dihydro-1H-isoindol-1-yl]-1H-benzimidazol-2-yl}carbamate], the IC50 in experiment [1] and in experiment [2] was less than 100 nM each time.
